The test system of one data set is H1299 cells. The data set can be described thus: Cytotoxicity, cell viability assay. Format: cell-based. As for the experimental part: Cell viability assays were performed as described previously. For the caspase assays, the media were removed, and cells were lysed in 200 µL lysis buffer containing 50 µL Caspase Glo 3/7 solution and incubated for 15 min. Results were observed by measuring the luminescence signal using KOMM-Nr (Berthold Technologies, Bad Wildbad, Germany) and normalized with the total protein concentration measured by the Bradford assay. Data were analyzed using GraphPad Prism version 6.0 for Windows with two tail t-test for statistical data analysis […]
Figure S7. Cytotoxicity of CR to cancer cells. H1299 cells were cultured in 96 -well plates. CR was added to final concentrations of 0.0 – 50.0 µM, and the cells were incubated for 24 h followed by cell viability assay. All error bars represent the standard deviation from at least 4 independent experiments. Statistical comparisons between groups were determined by Student’s t -test. If p -values are less than 0.05, they are statistically significant . NS, not […]
(1 picture or pasted object on this page, not shown here)

The subject of a further data set is E2-25K. As to the kind of experiment: In vitro K48 polyubiquitination reaction with E2-25K. The data set is classed as biochemical. The settings on record: purified E2-25K, increasing CR (50–500 µM), 500 µM ubiquitin, 37 °C. As for the experimental part: Figure 5 CR inhibits K48- and K63- polyubiquitination in vitro. (a) Interacting surface of ubiquitin when complex with E2-25K and Ubc13 compared with the surface used for CR binding. (b,c) CR inhibits K48- (b) and K63-ubiquitinations (c). First, mono ubiquitin was mixed with UBA1, E2-25K or complex Mms2/Ubc13, and 0–500 µM CR in the presence or absence of ATP regeneration system. Then the mixture was incubated at 37 °C for […]. The reaction was stopped by adding 5X SDS loading buffer and the results were analyzed with 15% SDS-PAGE.
For in vitro ubiquitination assays, 500 µM of ubiquitin was used for each ubiquitination reaction as described previously, in the absence or presence of 50–500 µM of CR. The reactions were incubated at 37 °C for 4 h and 16 h for K63- and K48 polyubiquitination respectively. The reaction was terminated by adding 5X SDS sampling buffer and results were subjected to 15% SDS-PAGE followed by Coomassie Blue staining for analyses. […] The generation of GST-ubiquitin from GST-Ubiquitin-HA as the mobility shifts were analyzed on 12.5% SDS-PAGE visualized by Coomassie blue staining. Band intensities were quantified by ImageJ [55] and used to generate the IC50 curves (log inhibitor vs. normalized response with variable slope) by GraphPad Prism version 6.0 for Windows (GraphPad Software, San Diego, CA, USA, www.graphpad.com).

The structures appear in SMILES notation.

On to `Nc1c(/N=N/c2ccc(-c3ccc(/N=N/c4cc(S(=O)(=O)O)c5ccccc5c4N)cc3)cc2)cc(S(=O)(=O)O)c2ccccc12` [CR, Congo red], for which the “Effect on cell viability, compound alone” value in the data set on H1299 cells (H1299, CR 0.0–50.0 µM, 24 h) is reported as “does not affect”. Besides, the None-toxicity concentration in the data set on H1299 cells (determined by cytotoxicity assays) worked out at 10 µM. Moreover, the “Inhibition of K48 polyubiquitination” value in the data set on E2-25K is listed as “effectively inhibited by CR in a dose-dependent manner”.
